Literature values, collected in patent US8524749B2, “Controlled release compositions of tizanidine” (ALZA Corporation, priority 2007, dated 2013).

Details: doses of 0.5-0.7 g/kg alcohol; comparison data

For CCO [alcohol], the “Peak impairment in Power of Attention, decrement compared to baseline” value is listed as “about 150 msec”.
